# Source: patent publication US9586928B2 (The Scripps Research Institute, priority 2011, dated 2017)
# How the values were obtained:
# [1] = molecular target: T1, RORα (Homo sapiens, UniProt P35398); assay: Gal4-RORα LBD / UAS luciferase cotransfection assay; assay type: cell-based; settings: 10 μM
# T1 construct: expressed in transfected cells; host or cells: HEK293T
# T1 sequence (P35398 272-510 limits assumed): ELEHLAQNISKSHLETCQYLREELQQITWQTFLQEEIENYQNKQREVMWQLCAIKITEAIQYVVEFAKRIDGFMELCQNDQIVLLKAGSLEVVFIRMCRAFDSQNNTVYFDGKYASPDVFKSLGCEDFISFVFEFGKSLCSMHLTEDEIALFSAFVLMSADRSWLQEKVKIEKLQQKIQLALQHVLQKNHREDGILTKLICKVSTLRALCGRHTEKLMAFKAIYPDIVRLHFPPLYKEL
# Protocol: (§1) The cells were treated with either DMSO or various compounds as indicated four hours after replating. Following additional 20 hour incubation, luciferase levels were assayed by one-step addition of 20 μL BriteLite (Perkin Elmer) and read using an Envision multilabel plate reader (Perkin Elmer).
# (§2) Cotransfection assays were performed as previously described in HEK293 cells (Gal4 cotransfection assay or IL-17 luciferase reporter)[8]. HEK293 and the mouse lymphoma EL4 (ATCC) cells were maintained in DMEM supplemented with 10% FBS plus antibiotics (penicillin and streptomycin; Invitrogen).
# [2] = molecular target: T2, RORγ (Homo sapiens, UniProt P51449); assay: Gal4-RORγ LBD / UAS luciferase cotransfection assay; assay type: cell-based; settings: for RORγ repression, fold change over DMSO: 10 μM
# T2 construct: expressed in transfected cells; host or cells: HEK293T
# T2 sequence (P51449 269-508 limits assumed): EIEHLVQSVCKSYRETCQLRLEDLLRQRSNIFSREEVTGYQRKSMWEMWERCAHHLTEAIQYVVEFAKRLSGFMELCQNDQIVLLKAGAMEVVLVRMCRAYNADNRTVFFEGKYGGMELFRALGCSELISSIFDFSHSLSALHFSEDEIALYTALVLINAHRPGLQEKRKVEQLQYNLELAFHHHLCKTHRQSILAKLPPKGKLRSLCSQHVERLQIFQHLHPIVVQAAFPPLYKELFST
# Protocol: as §1, §2
# [3] = molecular target: T3, GST-RORγ (Homo sapiens, UniProt P51449); assay: RORγ scintillation proximity (SPA) radioligand binding assay, displacement of [3H]-T0901317; settings: for IC50: displacement of 5 nM [3H]-T0901317 from GST-RORγ; for remaining activity at 10 µM: 10 μM compound, read-out: RORγ SPA % bound = % radiolabel bound
# T3 construct: 1 μg of GST-RORγ-LBD, 5 nM of [3H]T1317 as radioligand
# T3 sequence (P51449 269-508 limits assumed): T2 sequence (P51449 269-508 limits assumed)
# [4] = test system: VP16; assay: Gal4 DBD-VP16 / UAS luciferase control assay; assay type: cell-based; settings: 10 μM
# Protocol: as §1
# [5] = molecular target: T4, LXR (Homo sapiens, UniProt Q13133); assay: Gal4-LXRα / UAS luciferase cotransfection assay; assay type: cell-based; settings: 10 μM
# T4 sequence (Q13133 209-447 limits assumed): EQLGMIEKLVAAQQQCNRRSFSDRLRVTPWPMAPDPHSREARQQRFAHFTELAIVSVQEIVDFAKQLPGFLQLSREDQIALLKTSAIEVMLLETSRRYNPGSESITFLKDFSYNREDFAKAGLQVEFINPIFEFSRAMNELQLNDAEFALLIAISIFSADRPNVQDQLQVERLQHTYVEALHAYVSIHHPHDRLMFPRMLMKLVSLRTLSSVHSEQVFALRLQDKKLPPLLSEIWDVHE
# Protocol: as §1, §2
SMILES,"RORα repression, fold change over DMSO [1] [fold change over DMSO]",IC50 ([2]; Gal4 cotransfection) [nM],IC50 [3] [nM],"VP16 repression, fold change over DMSO [4] [fold change over DMSO]","LXR activation, fold change over DMSO [5] [fold change over DMSO]","RORγ repression, fold change over DMSO [2] [fold change over DMSO]",remaining activity at 10 µM [3] [%]
"OC(c1ccc(-c2ccc(CN3CCN(Cc4ccncc4)CC3)cc2)cc1)(C(F)(F)F)C(F)(F)F [Compound 1, 1,1,1,3,3,3-Hexafluoro-2-(4′-((4-(pyridin-4-ylmethyl)piperazin-1-yl)methyl)-[1,1′-biphenyl]-4-yl)propan-2-ol]",1,400,150,1,1,,
"OC(c1ccc(-c2ccc(CN3CCN(C4CC4)CC3)cc2)cc1)(C(F)(F)F)C(F)(F)F [Compound 17, 2-(4′-((4-Cyclopropylpiperazin-1-yl)methyl)-[1,1′-biphenyl]-4-yl)-1,1,1,3,3,3-hexafluoropropan-2-ol]",0.55,,,0.4,0.75,0.25,20
"Cc1cc(CN2CCN(Cc3ccc(-c4ccc(C(O)(C(F)(F)F)C(F)(F)F)cc4)cc3)CC2)ccn1 [Compound 43, 1,1,1,3,3,3-Hexafluoro-2-(4′-((4-((2-methylpyridin-4-yl)methyl)piperazin-1-yl)methyl)-[1,1′-biphenyl]-4-yl)propan-2-ol]",0.6,,,0.6,1,0.1,
"OC(c1ccc(-c2ccc(CN3CCN(c4ccncc4)CC3)cc2)cc1)(C(F)(F)F)C(F)(F)F [Compound 44, 1,1,1,3,3,3-Hexafluoro-2-(4′-((4-(pyridin-4-yl)piperazin-1-yl)methyl)-[1,1′-biphenyl]-4-yl)propan-2-ol]",0.5,,,0.3,1,0.4,
"OC(c1ccc(-c2ccc(CN3CCN(Cc4ccncc4Br)CC3)cc2)cc1)(C(F)(F)F)C(F)(F)F [Compound 59, 2-(4′-((4-((3-Bromopyridin-4-yl)methyl)piperazin-1-yl)methyl)-[1,1′-biphenyl]-4-yl)-1,1,1,3,3,3-hexafluoropropan-2-ol]",0.4,,1100,0.4,4,0.05,
"OC(c1ccc(-c2ccc(CN3CCC(Cc4ccc5c(c4)OCO5)CC3)cc2)cc1)(C(F)(F)F)C(F)(F)F [Compound 88, 2-(4′-((4-(Benzo[d][1.3]dioxol-5-ylmethyl)piperidin-1-yl)methyl)-[1,1′-biphenyl]-4-yl)-1,1,1,3,3,3-hexafluoropropan-2-ol]",0.6,,,0.3,1.3,0.2,35
OC(c1ccc(-c2ccc(CN3CCN(Cc4ccncc4Cl)CC3)cc2)cc1)(C(F)(F)F)C(F)(F)F [Compound 92],0.7,,,0.6,5,0.1,25
"OC(c1ccc(-c2ccc(CN3CCN(Cc4ccncc4)CC3)c(Cl)c2)cc1)(C(F)(F)F)C(F)(F)F [Compound 93, 2-(3′-Chloro-4′-((4-(pyridin-4-ylmethyl)piperazin-1-yl)methyl)-[1,1′-biphenyl]-4-yl)-1,1,1,3,3,3-hexafluoropropan-2-ol]",0.4,,,0.7,1.5,0.05,
"Cc1cc(-c2ccc(C(O)(C(F)(F)F)C(F)(F)F)cc2)ccc1CN1CCN(Cc2ccncc2)CC1 [Compound 94, 1,1,1,3,3,3-Hexafluoro-2-(3′-methyl-4′-((4-(pyridin-4-ylmethyl)piperazin-1-yl)methyl)-[1,1′-biphenyl]-4-yl)propan-2-ol]",0.5,,230,0.8,0.8,0.05,
"OC(c1ccc(-c2ccc(CN3CCN(Cc4ccncc4)CC3)cc2F)cc1)(C(F)(F)F)C(F)(F)F [Compound 95, 1,1,1,3,3,3-Hexafluoro-2-(2′-fluoro-4′-((4-(pyridin-4-ylmethyl)piperazin-1-yl)methyl)-[1,1′-biphenyl]-4-yl)propan-2-ol]",0.5,,,0.7,5,0.05,
"COc1cc(-c2ccc(C(O)(C(F)(F)F)C(F)(F)F)cc2)ccc1CN1CCN(Cc2ccncc2)CC1 [Compound 97, 1,1,1,3,3,3-Hexafluoro-2-(3′-methoxy-4′-((4-(pyridin-4-ylmethyl)piperazin-1-yl)methyl)-[1,1′-biphenyl]-4-yl)propan-2-ol]",0.5,,1500,0.5,1,0.05,
"OC(c1ccc(-c2ccc(CN3CCN(Cc4ccncc4)CC3)c(F)c2)cc1)(C(F)(F)F)C(F)(F)F [Compound 98, 1,1,1,3,3,3-Hexafluoro-2-(3′-fluoro-4′-((4-(pyridin-4-ylmethyl)piperazin-1-yl)methyl)-[1,1′-biphenyl]-4-yl)propan-2-ol]",0.8,,1500,0.65,2,0.05,
"O=C(c1ccc(-c2ccc(C(O)(C(F)(F)F)C(F)(F)F)cc2)cc1)N1CCN(Cc2ccncc2)CC1 [Compound 100, (4′-(1,1,1,3,3,3-Hexafluoro-2-hydroxypropan-2-yl)-[1,1′-biphenyl]-4-yl)(4-(pyridin-4-ylmethyl)piperazin-1-yl)methanone]",0.6,,1700,0.4,0.8,0.1,
"OC(c1ccc(-c2ccc(CN3CCN(Cc4c(F)cncc4F)CC3)cc2)cc1)(C(F)(F)F)C(F)(F)F [Compound 101, 2-(4′-((4-((3,5-Difluoropyridin-4-yl)methyl)piperazin-1-yl)methyl)-[1,1′-biphenyl]-4-yl)-1,1,1,3,3,3-hexafluoropropan-2-ol]",0.8,,,0.75,4,0.15,
"OC(c1ccc(-c2ccc(CN3CCC(Nc4ccncc4)CC3)cc2)cc1)(C(F)(F)F)C(F)(F)F [Compound 104, 1,1,1,3,3,3-Hexafluoro-2-(4′-((4-(pyridin-4-ylamino)piperidin-1-yl)methyl)-[1,1′-biphenyl]-4-yl)propan-2-ol]",0.9,,,0.4,1.1,0.1,20
"OC(c1ccc(-c2ccc(CN3CCN(Cc4cncs4)CC3)cc2)cc1)(C(F)(F)F)C(F)(F)F [Compound 114, 1,1,1,3,3,3-Hexafluoro-2-(4′-((4-(thiazol-5-ylmethyl)piperazin-1-yl)methyl)-[1,1′-biphenyl]-4-yl)propan-2-ol]",0.79,,,0.92,0.63,0.87,50
